# Results as given in US8802416B2, “Thermostable organic solvent tolerant protease from gram-positive bacteria” (Universiti Putra Malaysia, priority 2009, dated 2014).
# Square brackets hold non-standard residues; d marks the D form. Peptide text beside a SMILES is read from it. * marks the point of attachment. Sta = CC(C)C[C@H](N)[C@@H](O)CC(=O)O; Isovaleryl = CC(C)CC(=O)*
# Tests used:
# Rand protease [1] = test: Effect of inhibitors on protease activity; type: biochemical, Bacillus subtilis isolate Rand; conditions: 5 mM inhibitor, 30 min at 37° C., relative to control
# Protocol: Purified Rand protease was incubated with 5 mM of different inhibitors at 37° C. for 30 min.
# All the inhibitors were used at 5 mM final concentration.
# [2] = test system: thermophilic Bacillus strain HS08 protease; conditions: cited from earlier work
# Rand protease [3] = test: Effect of metal ions on protease activity; type: biochemical, Bacillus subtilis isolate Rand; conditions: 5 mM metal ion, 37° C., 30 min; control no ions
# Protocol: Purified Rand protease was treated with 5 mM of various metal ions at 37° C. for […].
# The effect of metal ions on protease activity was determined by incubating the protease with different metal ions at 5 mM final concentration. The metal ions used were K^+, Na^+, Mg^2+, Ca^2+, Mg^2+, Fe^2+, Co^2+, Cu^2+, Zn^2+ and […]. The samples were incubated at 37° C. for 30 min. […] The control contained no ions.
# [4] = test system: Bacillus sp. TKU004 protease; conditions: zinc ions; cited from earlier work
# [5] = test system: protease activity of B. megaterium; conditions: presence of Zn2+; cited from earlier work
# Rand protease [6] = test: Effect of organic solvents on purified Rand protease activity; type: biochemical, Bacillus subtilis isolate Rand; conditions: 25% (v/v) solvent, 37° C., 150 rpm, 30 min, no solvent = 100%
# Protocol: . Three ml of purified Rand protease were incubated with 1 ml of different organic solvents at 37° C. with shaking at 150 rpm for 30 min. The activity of the enzyme without any solvent (none) was taken as 100%.
# The effects of organic solvents with various log P on protease activity were determined. […] . The control was done in the absent of organic solvent and assay under the same experimental conditions. The protease was incubated in the presence of 25% (v/v) of organic solvents for 30 min. The incubation was performed at 37° C. in water bath shaker with 150 rpm. The samples were removed and immediately vortex prior to assay the protease activity.
# [7] = cited from earlier work
# Rand protease [8] = test: Effect of organic solvents on stability of crude Rand protease (cell-free supernatant); type: biochemical, Bacillus subtilis isolate Rand; conditions: 25% (v/v) solvent, 55° C., 150 rpm, 30 min, control distilled water
# Protocol: 1. […] Three ml aliquots of a cell-free supernatant culture were incubated with 1 ml of different organic solvents at 55° C. with shaking at 150 rpm for 30 min.
# Each sample was run in triplicate.
# Isolate Rand was cultured aerobically at 50° C. for 24 h in the absence of organic solvents. The culture medium was then centrifuged at 12,000×g and 4° C. for 10 min. The supernatant was filtered with a cellulose acetate membrane filter (pore size 0.22 μm). One mL organic solvent was added to 3.0 mL of the cell-free supernatant and the whole mixture was incubated in shaker 150 rpm at 55° C. for 30 min. The samples were removed and immediately vortex prior to assay at zero time and after incubation period. For control the solvent was replaced by distilled water.
smiles,measurement,setting,value
"O[C@@H](CS)[C@@H](O)CS (racemic) [DTT, 1,4-Dithio-DL-threitol]",reduction (inhibition) of protease activity,Rand protease [1],30%
"OCCS [2-mercaptoethanol, 2-Mercaptoethanol]",reduction (inhibition) of protease activity,Rand protease [1],About 90%
"CC(C)C[C@H](NC(=O)[C@@H](O)[C@H](N)Cc1ccccc1)C(=O)O [Bestatin, bestatin]",protease activity retained,Rand protease [1],about 95%
[Ca+2] [Ca^2+],influence on proteolytic activity,[2]; Ca2+ ions,did not show any influence
same,protease activity in the presence of metal ion,Rand protease [3],around 89%
[Co+2] [Co^2+],protease activity in the presence of metal ion,Rand protease [3],inhibitory effects
[Cu+2] [Cu^2+],protease activity in the presence of metal ion,Rand protease [3],inhibitory effects
[Fe+2] [Fe^2+],protease activity in the presence of metal ion,Rand protease [3],inhibitory effects
[K+] [K^+],protease activity in the presence of metal ion,Rand protease [3],~112%
[Mg+2] [Mg^2+],protease activity in the presence of metal ion,Rand protease [3],inhibitory effects
[Ni+2] [Ni^2+],protease activity in the presence of metal ion,Rand protease [3],inhibitory effects
"O=S(=O)(F)Cc1ccccc1 [PMSF, phenylmethanesulfonyl fluoride]",reduction (inhibition) of protease activity,Rand protease [1],completely inhibited
"CC(C)CC(=O)N[C@H](C(=O)N[C@H](C(=O)N[C@@H](CC(C)C)[C@@H](O)CC(=O)N[C@@H](C)C(=O)N[C@@H](CC(C)C)[C@@H](O)CC(=O)O)C(C)C)C(C)C [Pepstatin A, pepstatin A] (Isovaleryl-VV[Sta]A[Sta]-OH)",protease activity retained,Rand protease [1],~63%
[Zn+2] [Zn^2+],"activity of the apo-enzyme restored, of the original level",[4],75%
same,relative activity,[2]; 2 mM Zn2+,109%
same,relative activities,[5],28%
ClC(Cl)Cl [chloroform],relative activity remaining in organic solvent,Rand protease [6],18%
CCCCCCCCCCCC [n-dodecane],log P,[7],6.0
CCCCCCCCCCCCCC [n-tetradecane],log P,[7],7.6
c1ccncc1 [pyridine],remaining activity of Rand protease in the presence of organic solvent,Rand protease [8],no activity was observed
Cc1ccccc1 [toluene],remaining activity of Rand protease in the presence of organic solvent,Rand protease [8],130%
same,remaining activity of Rand protease in the presence of organic solvent,Rand protease [8]; listed as toluen,enhanced
